Tests used:
Aβ1-40 and Aβ1-42 = test: Aβ ELISA of hippocampus of aged huAPP/PS1 mice; assay type: in vivo; settings: three months J147
Description: The APPswe/PS1ΔE9 transgenic mice have been previously characterized. The line 85 mice carry two transgenes, the mouse/human chimeric APP/Swe, linked to Swedish FAD and human PS1ΔE9. At 20 months of age both male and female transgenic mice were fed a high fat diet (Harlan Tekland, Madison, WI, USA) with and without J147 (200 ppm, 10 mg/kg/day). Treatment continued for three months and was followed by behavior testing and sacrifice of mice for tissue harvesting. […] (Data not shown).
Hippocampal and entorhinal cortex tissue samples were homogenized in 10 volumes of RIPA lysis buffer (50 mM Tris, pH 7.5, 150 mM NaCl, 0.1% sodium dodecyl sulfate and 0.5% deoxycholate, and 1% NP40) containing a cocktail of protease and phosphatase inhibitors ([…] each of pepstatin A, aprotinin, phosphoramidon, and leupeptin; 0.5 mM 4-(2-aminoethyl) benzenesulfonyl fluoride hydrochloride; 1 mM EGTA; 5 mM fenvalerate; and 5 mM cantharidin). Samples were sonicated (2 × 10 s) and centrifuged at 100,000 × g for 60 minutes at 4°C. Protein concentrations in the cell extracts were determined using the BCA protein assay (Pierce supplied by Thermo Fisher Scientific, Rockford, IL, USA). Equal amounts of protein were solubilized in 2.5x SDS-sample buffer, separated on 12% SDS-polyacrylamide gels, transferred to Immobulin P and immunoblotted with the antibodies indicated in the Materials section. For Western blots, protein levels were normalized to actin levels. An unpaired t test was performed to compare between two groups at a single time point. When comparing multiple groups, one-way ANOVA followed by a Tukey's post hoc test was used. All statistical analysis was conducted using GraphPad Instat software.
Aβ 1 to 40 and 1 to 42 levels in hippocampal lysate were analyzed using the Aβ1-40 and Aβ1-42 ELISA kits from Invitrogen (# KHB3481 and # KHB3442, respectively). All kit reagents were brought to room temperature before use. Standards were prepared according to the manufacturer's guidelines and samples were diluted as follows; RIPA fractions were diluted 1:10 for both Aβ1-40 and Aβ1-42; and RIPA insoluble fractions were diluted 1:2,000 for Aβ1-40 and 1:5,000 for Aβ1-42. A total of 50 μl of Aβ peptide standards and samples were added in duplicate to 96-well plates pre-coated with mAb to the NH2 terminus region of Aβ. Plates were incubated at 4°C overnight and then 50 μl of Hu Aβ40 or Aβ42 detection antibody was added to each well except the chromogen blanks. […] Stop solution was then added at 100 μl to each well followed by reading the absorbance of each well at 450 nm. […] The concentrations of the samples were calculated from the standard curve and multiplied by the dilution factor.

[1] = target: T1, monoamine oxidase B (MAO B) (Homo sapiens, UniProt P27338); test: monoamine oxidase B assay (MDS Pharma Services); assay type: biochemical
T1 sequence (P27338 1-520): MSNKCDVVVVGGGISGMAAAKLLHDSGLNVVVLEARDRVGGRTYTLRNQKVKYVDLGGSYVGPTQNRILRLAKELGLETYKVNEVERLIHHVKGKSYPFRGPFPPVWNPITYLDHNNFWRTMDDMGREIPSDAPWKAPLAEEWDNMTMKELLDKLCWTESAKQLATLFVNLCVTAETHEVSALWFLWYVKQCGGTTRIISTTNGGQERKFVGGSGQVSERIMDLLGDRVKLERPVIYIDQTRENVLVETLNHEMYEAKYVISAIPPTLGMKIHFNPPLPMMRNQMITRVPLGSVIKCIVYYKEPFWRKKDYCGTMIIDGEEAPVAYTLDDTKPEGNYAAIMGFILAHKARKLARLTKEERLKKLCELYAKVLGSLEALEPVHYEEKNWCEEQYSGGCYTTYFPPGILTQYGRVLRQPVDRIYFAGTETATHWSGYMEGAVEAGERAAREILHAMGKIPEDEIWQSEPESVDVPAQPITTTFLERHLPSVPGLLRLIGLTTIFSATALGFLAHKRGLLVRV
Description: All screening was done at 10 μM J147 by various contract research organizations (CROs), including MDS Pharma Services (King of Prussia, PA, USA), Ricerca, now Panlabs (Concord, OH, USA), Ambit (La Jolla, CA, USA), Caliper (Hopkinton, MA, USA) and NovaScreen Biosciences (Hanover, MD, USA) by standard protocols described in their catalogs.

COc1cccc(/C=N/N(C(=O)C(F)(F)F)c2ccc(C)cc2C)c1 [J147, (E)-N-(2,4-dimethylphenyl)-2,2,2-trifluoro-N'-(3methoxybenzyli-dene) acetohydrazide]
Aβ1-40 levels, RIPA insoluble fraction (Aβ1-40 and Aβ1-42): reduced | Aβ1-42 levels, RIPA insoluble fraction (Aβ1-40 and Aβ1-42): not altered | RIPA soluble Aβ1-40 (Aβ1-40 and Aβ1-42): decreased | RIPA soluble Aβ1-42 (Aβ1-40 and Aβ1-42): decreased | inhibition, monoamine oxidase B ([1]; 10 μM J147): greater than 60% | EC50 ([1]; dose response, re-assay after screening): 1.88 µM

Reference: PMC3706879, “The neurotrophic compound J147 reverses cognitive impairment in aged Alzheimer's disease mice” (Alzheimer's Research & Therapy, 2013)
